Laboratory results published in patent publication US10329289B2, “6,7-dihydro-5H-pyrrolo[3,4-B]pyridin-5-one allosteric modulators of the M4 muscarinic acetylcholine receptor” (Merck Sharp & Dohme Corp., priority 2015, dated 2019).
pEC50: −log10 of the molar value.

The molecules below were run against T1, human M4 muscarinic acetylcholine receptor (Homo sapiens, UniProt P08173) (assay: human FLIPR-based M4 PAM assay (Ca2+ mobilization, CHO-K1 cells with human M4 receptor and Gαqi5)). Conditions: acetylcholine at 20% of maximum response, read-out: M4 PAM IP.
T1 construct: expressed in transfected cells; host or cells: CHO-K1
T1 sequence (P08173 1-479): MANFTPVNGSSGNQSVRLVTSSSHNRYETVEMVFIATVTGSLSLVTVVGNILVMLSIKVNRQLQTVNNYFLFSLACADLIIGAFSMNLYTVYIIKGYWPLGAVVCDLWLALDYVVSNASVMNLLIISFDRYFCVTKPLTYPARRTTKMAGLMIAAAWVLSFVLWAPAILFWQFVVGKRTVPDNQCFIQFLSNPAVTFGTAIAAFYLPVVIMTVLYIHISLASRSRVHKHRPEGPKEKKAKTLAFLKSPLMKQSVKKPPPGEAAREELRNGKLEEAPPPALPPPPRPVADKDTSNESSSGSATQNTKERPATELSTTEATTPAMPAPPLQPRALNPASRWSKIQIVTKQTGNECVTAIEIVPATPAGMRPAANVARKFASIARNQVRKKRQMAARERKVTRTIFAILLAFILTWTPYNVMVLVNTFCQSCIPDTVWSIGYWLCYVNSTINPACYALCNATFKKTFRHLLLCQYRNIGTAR
Type: cell-based
Procedure, shortened: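 CHO-K1 cells stably expressing human M4 and chimeric Gαqi5 were dye-loaded ~1 h at 37 °C and read for Ca2+ fluorescence. Compound followed by acetylcholine at an EC20 (sometimes an EC70 third addition); inflection point from a 4-parameter logistic fit.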

Question: `Cc1c(N2CCC(Oc3ccc4c(c3)C[C@H](O)C4)CC2)nc2c(c1C)C(=O)NC2` [Example 334A, (R)-2-(4-((2-hydroxy-2,3-dihydro-1H-inden-5-yl)oxy)piperidin-1-yl)-3,4-dimethyl-6,7-dihydro-5H-pyrrolo[3,4-b]pyridin-5-one] was tested. Which pEC50 did it give?
Answer: Its pEC50 is 7.17.

Question: How did the pEC50 turn out when `Cc1c(N2CCC(Oc3ccc4c(c3)C[C@@H](O)C4)CC2)nc2c(c1C)C(=O)NC2` [Example 334B, (S)-2-(4-((2-hydroxy-2,3-dihydro-1H-inden-5-yl)oxy)piperidin-1-yl)-3,4-dimethyl-6,7-dihydro-5H-pyrrolo[3,4-b]pyridin-5-one] was run?
Answer: Its pEC50 is 7.42.

Question: How did the pEC50 turn out when `CO[C@@H]1Cc2ccc(OC3CCN(c4nc5c(c(C)c4C)C(=O)NC5)CC3)cc2C1` [Example 335A, (R)-2-(4-((2-methoxy-2,3-dihydro-1H-inden-5-yl)oxy)piperidin-1-yl)-3,4-dimethyl-6,7-dihydro-5H-pyrrolo[3,4-b]pyridin-5-one] was run?
Answer: The pEC50 was 6.61.

Question: With `CO[C@H]1Cc2ccc(OC3CCN(c4nc5c(c(C)c4C)C(=O)NC5)CC3)cc2C1` [Example 335B, (5)-2-(4-((2-methoxy-2,3-dihydro-1H-inden-5-yl)oxy)piperidin-1-yl)-3,4-dimethyl-6,7-dihydro-5H-pyrrolo[3,4-b]pyridin-5-one] as the molecule, how does the pEC50 read?
Answer: Its pEC50 is 6.59.

Question: How did the pEC50 turn out when `Cc1c(N2CCC(Oc3ccc4c(c3)CCOC4)CC2)nc2c(c1C)C(=O)NC2` [Example 336, 2-(4-(isochroman-6-yloxy)piperidin-1-yl)-3,4-dimethyl-6,7-dihydro-5H-pyrrolo[3,4-b]pyridin-5-one] was run?
Answer: The pEC50 was 6.74.

Question: How did the pEC50 turn out when `Cc1c(N2CC[C@@H](Oc3cnn(C)c3)C(F)(F)C2)nc2c(c1C)C(=O)NC2` [Example 336B, (R)-2-(3,3-difluoro-4-((1-methyl-1H-pyrazol-4-yl)oxy)piperidin-1-yl)-3,4-dimethyl-6,7-dihydro-5H-pyrrolo[3,4-b]pyridin-5-one] was run?
Answer: Its pEC50 is 6.19.

Question: With `Cc1c(N2CC[C@H](Oc3cnn(C)c3)C(F)(F)C2)nc2c(c1C)C(=O)NC2` [Example 336C, (S)-2-(3,3-difluoro-4-((l-methyl-1H-pyrazol-4-yl)oxy)piperidin-1-yl)-3,4-dimethyl-6,7-dihydro-5H-pyrrolo[3,4-b]pyridin-5-one] as the molecule, how does the pEC50 read?
Answer: The pEC50 was 7.48.

Question: How did the pEC50 turn out when `Cc1cc2c(nc1N1CCC(OCC3(C)CC3)CC1)CN(C)C2=O` [Example 338, 3,6-dimethyl-2-(4-((1-methylcyclopropyl)methoxy)piperidin-1-yl)-6,7-dihydro-5H-pyrrolo[3,4-b]pyridin-5-one] was run?
Answer: Its pEC50 is 7.40.

Question: How did the pEC50 turn out when `Cc1cc2c(nc1N1CCC(OCC3(C)CC3)CC1)[C@@H](CO)N(C)C2=O` [Example 339, (S)-7-(hydroxymethyl)-3,6-dimethyl-2-(4-((1-methylcyclopropyl)methoxy)piperidin-1-yl)-6,7-dihydro-5H-pyrrolo[3,4-b]pyridin-5-one] was run?
Answer: The pEC50 was 7.89.

Question: With `Cc1cc2c(nc1N1CCC(OCC3(C)CC3)CC1)[C@H](CO)N(C)C2=O` [Example 340, (R)-7-(hydroxymethyl)-3,6-dimethyl-2-(4-((1-methylcyclopropyl)methoxy)piperidin-1-yl)-6,7-dihydro-5H-pyrrolo[3,4-b]pyridin-5-one] as the molecule, how does the pEC50 read?
Answer: The pEC50 was 5.53.

Question: `CCc1cc2c(nc1N1CCC(OCC3(C)CC3)CC1)[C@@H](CO)N(C)C2=O` [Example 341, (S)-3-ethyl-7-(hydroxymethyl)-6-methyl-2-(4-((1-methylcyclopropyl)methoxy)piperidin-1-yl)-6,7-dihydro-5H-pyrrolo[3,4-b]pyridin-5-one] was tested. Which pEC50 did it give?
Answer: The pEC50 was 7.64.

Question: How did the pEC50 turn out when `Cc1c(N2CC[C@@H](OCC3(C)CC3)[C@@H](F)C2)nc2c(c1C)C(=O)N(C)[C@@H]2CO` [Example 341A, (S)-2-((3S,4R)-3-fluoro-4-((1-methylcyclopropyl)methoxy)piperidin-1-yl)-7-(hydroxymethyl)-3,4,6-trimethyl-6,7-dihydro-5H-pyrrolo[3,4-b]pyridin-5-one] was run?
Answer: The pEC50 was 8.05.

Question: With `CCc1cc2c(nc1N1CCC(OCC3(C)CC3)CC1)[C@H](CO)N(C)C2=O` [Example 342, (R)-3-ethyl-7-(hydroxymethyl)-6-methyl-2-(4-((1-methylcyclopropyl)methoxy)piperidin-1-yl)-6,7-dihydro-5H-pyrrolo[3,4-b]pyridin-5-one] as the molecule, how does the pEC50 read?
Answer: The pEC50 was 5.46.

Question: With `Cc1c(N2CC[C@@H](OCC3(C)CC3)[C@@H](F)C2)nc2c(c1C)C(=O)N(C)[C@H]2CO` [Example 342A, (R)-2-((3S,4R)-3-fluoro-4-((1-methylcyclopropyl)methoxy)piperidin-1-yl)-7-(hydroxymethyl)-3,4,6-trimethyl-6,7-dihydro-5H-pyrrolo[3,4-b]pyridin-5-one] as the molecule, how does the pEC50 read?
Answer: Its pEC50 is 6.05.

Question: `Cc1cncc(OC2CCN(c3nc4c(cc3C)C(=O)N(C)[C@@H]4CO)CC2)c1` [Example 343, (S)-7-(hydroxymethyl)-3,6-dimethyl-2-(4-((5-methylpyridin-3-yl)oxy)piperidin-1-yl)-6,7-dihydro-5H-pyrrolo[3,4-b]pyridin-5-one] was tested. Which pEC50 did it give?
Answer: The pEC50 was 7.26.

Question: With `COc1ccc(OC2CCN(c3nc4c(c(C)c3C)C(=O)N(C)[C@@H]4CO)CC2)cn1` [Example 343A, (S)-7-(hydroxymethyl)-2-(4-((6-methoxypyridin-3-yl)oxy)piperidin-1-yl)-3,4,6-trimethyl-6,7-dihydro-5H-pyrrolo[3,4-b]pyridin-5-one] as the molecule, how does the pEC50 read?
Answer: Its pEC50 is 7.57.

Question: With `Cc1cncc(OC2CCN(c3nc4c(cc3C)C(=O)N(C)[C@H]4CO)CC2)c1` [Example 344, (R)-7-(hydroxymethyl)-3,6-dimethyl-2-(4-((5-methylpyridin-3-yl)oxy)piperidin-1-yl)-6,7-dihydro-5H-pyrrolo[3,4-b]pyridin-5-one] as the molecule, how does the pEC50 read?
Answer: The pEC50 was 5.91.

Question: How did the pEC50 turn out when `COc1ccc(OC2CCN(c3nc4c(c(C)c3C)C(=O)N(C)[C@H]4CO)CC2)cn1` [Example 344A, (R)-7-(hydroxymethyl)-2-(4-((6-methoxypyridin-3-yl)oxy)piperidin-1-yl)-3,4,6-trimethyl-6,7-dihydro-5H-pyrrolo[3,4-b]pyridin-5-one] was run?
Answer: Its pEC50 is 6.12.

Question: How did the pEC50 turn out when `Cc1cc2c(nc1N1CCC(Oc3cccc(C#N)c3)CC1)[C@@H](CO)N(C)C2=O` [Example 345, (S)-3-((1-(7-(hydroxymethyl)-3,6-dimethyl-5-oxo-6,7-dihydro-5H-pyrrolo[3,4-b]pyridin-2-yl)piperidin-4-yl)oxy)benzonitrile] was run?
Answer: The pEC50 was 7.64.

Question: How did the pEC50 turn out when `Cc1cc2c(nc1N1CCC(Oc3cccc(C#N)c3)CC1)[C@H](CO)N(C)C2=O` [Example 346, (R)-3-((1-(7-(hydroxymethyl)-3,6-dimethyl-5-oxo-6,7-dihydro-5H-pyrrolo[3,4-b]pyridin-2-yl)piperidin-4-yl)oxy)benzonitrile] was run?
Answer: Its pEC50 is 5.51.

Question: With `Cc1cc2c(nc1N1CCC(Oc3ccc(F)c(F)c3)CC1)[C@@H](CO)N(C)C2=O` [Example 347, (S)-2-(4-(3,4-difluorophenoxy)piperidin-1-yl)-7-(hydroxymethyl)-3,6-dimethyl-6,7-dihydro-5H-pyrrolo[3,4-b]pyridin-5-one] as the molecule, how does the pEC50 read?
Answer: The pEC50 was 7.55.

Question: `Cc1cc2c(nc1N1CCC(Oc3ccc(F)c(F)c3)CC1)[C@H](CO)N(C)C2=O` [Example 348, (R)-2-(4-(3,4-difluorophenoxy)piperidin-1-yl)-7-(hydroxymethyl)-3,6-dimethyl-6,7-dihydro-5H-pyrrolo[3,4-b]pyridin-5-one] was tested. Which pEC50 did it give?
Answer: The pEC50 was 5.09.

Question: With `Cc1cc2c(nc1N1CCC(Oc3ccc4c(c3)COCC4)CC1)[C@@H](CO)N(C)C2=O` [Example 349, (S)-7-(hydroxymethyl)-2-(4-(isochroman-7-yloxy)piperidin-1-yl)-3,6-dimethyl-6,7-dihydro-5H-pyrrolo[3,4-b]pyridin-5-one] as the molecule, how does the pEC50 read?
Answer: Its pEC50 is 7.66.
